ChEMBL document CHEMBL2375296, “BCR-ABL tyrosine kinase inhibitor pharmacophore model derived from a series of phenylaminopyrimidine-based (PAP) derivatives” (Bioorg Med Chem Lett, 2013)

Target: Bcr/Abl fusion protein (Homo sapiens, UniProt P00519)
Experiment: Inhibition of BCR-ABL kinase (unknown origin)
Assay type: protein assay

Bcr/Abl fusion protein, sequence (P00519 whole entry, the tested form may be a part): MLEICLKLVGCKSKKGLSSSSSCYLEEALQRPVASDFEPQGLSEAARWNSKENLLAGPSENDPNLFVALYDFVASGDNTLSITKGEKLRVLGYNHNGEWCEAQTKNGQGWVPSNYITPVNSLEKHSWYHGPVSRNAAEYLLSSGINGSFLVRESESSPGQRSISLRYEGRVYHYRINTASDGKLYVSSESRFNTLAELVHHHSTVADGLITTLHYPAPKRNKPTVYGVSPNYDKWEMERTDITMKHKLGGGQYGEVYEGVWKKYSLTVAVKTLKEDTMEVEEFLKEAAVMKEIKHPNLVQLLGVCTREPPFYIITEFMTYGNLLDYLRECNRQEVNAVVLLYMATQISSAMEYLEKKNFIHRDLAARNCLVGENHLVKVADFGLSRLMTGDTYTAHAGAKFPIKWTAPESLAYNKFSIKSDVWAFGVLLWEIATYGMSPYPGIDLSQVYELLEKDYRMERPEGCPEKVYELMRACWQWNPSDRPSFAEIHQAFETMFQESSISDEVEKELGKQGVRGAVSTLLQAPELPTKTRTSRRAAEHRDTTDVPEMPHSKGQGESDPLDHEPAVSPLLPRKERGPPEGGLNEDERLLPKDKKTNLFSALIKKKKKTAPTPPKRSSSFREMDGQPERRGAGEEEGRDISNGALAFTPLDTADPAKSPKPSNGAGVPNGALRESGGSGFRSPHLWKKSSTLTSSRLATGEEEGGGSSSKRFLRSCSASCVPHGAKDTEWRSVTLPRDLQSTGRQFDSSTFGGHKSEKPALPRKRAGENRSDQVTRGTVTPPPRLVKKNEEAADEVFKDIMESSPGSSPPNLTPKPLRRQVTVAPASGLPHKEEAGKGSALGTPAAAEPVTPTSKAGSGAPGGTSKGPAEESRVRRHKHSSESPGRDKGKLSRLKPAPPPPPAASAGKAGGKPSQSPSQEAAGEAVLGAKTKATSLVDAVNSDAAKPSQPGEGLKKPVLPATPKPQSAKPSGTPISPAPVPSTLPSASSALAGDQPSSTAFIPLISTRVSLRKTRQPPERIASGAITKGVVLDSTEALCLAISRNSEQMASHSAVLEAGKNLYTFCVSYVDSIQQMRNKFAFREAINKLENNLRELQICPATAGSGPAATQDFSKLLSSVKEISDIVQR
Bcr/Abl fusion protein, sequence (P11274 whole entry, further chain, the tested form may be a part): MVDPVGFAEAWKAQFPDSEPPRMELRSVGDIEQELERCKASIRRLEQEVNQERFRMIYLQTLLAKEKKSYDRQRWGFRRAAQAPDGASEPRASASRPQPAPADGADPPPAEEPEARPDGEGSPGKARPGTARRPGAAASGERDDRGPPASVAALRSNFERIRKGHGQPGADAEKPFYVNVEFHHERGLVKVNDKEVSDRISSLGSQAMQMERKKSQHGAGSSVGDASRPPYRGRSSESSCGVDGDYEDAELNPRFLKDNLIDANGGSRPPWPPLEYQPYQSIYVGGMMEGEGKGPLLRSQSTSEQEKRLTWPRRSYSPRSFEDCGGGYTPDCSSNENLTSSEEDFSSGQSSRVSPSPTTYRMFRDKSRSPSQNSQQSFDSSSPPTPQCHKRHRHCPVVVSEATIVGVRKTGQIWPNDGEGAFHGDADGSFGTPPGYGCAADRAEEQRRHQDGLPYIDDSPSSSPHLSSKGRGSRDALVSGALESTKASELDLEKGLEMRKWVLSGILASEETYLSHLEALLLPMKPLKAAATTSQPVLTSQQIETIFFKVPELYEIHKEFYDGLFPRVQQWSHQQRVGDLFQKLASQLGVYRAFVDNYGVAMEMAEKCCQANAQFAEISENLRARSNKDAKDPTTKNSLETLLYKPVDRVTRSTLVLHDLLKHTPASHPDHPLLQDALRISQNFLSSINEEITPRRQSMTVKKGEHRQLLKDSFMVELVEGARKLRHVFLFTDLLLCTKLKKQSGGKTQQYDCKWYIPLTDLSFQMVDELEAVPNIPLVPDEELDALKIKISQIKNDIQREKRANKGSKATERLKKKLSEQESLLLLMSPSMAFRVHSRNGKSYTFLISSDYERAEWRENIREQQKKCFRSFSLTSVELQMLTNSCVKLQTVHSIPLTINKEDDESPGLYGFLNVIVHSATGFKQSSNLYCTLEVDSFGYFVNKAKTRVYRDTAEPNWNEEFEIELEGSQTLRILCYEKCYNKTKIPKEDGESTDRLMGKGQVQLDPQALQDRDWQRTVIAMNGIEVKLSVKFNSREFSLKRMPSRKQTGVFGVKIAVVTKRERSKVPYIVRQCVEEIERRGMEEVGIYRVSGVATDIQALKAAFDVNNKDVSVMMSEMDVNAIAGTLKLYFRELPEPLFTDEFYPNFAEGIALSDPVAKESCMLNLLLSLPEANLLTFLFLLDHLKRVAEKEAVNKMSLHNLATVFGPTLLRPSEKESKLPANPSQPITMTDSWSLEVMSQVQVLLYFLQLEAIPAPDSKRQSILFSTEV

Row | SMILES | IC50
1 | O=C(Nc1cccc(Nc2nccc(-c3cccnc3)n2)c1)c1cccnc1 | 0.151 µM
2 | O=[N+]([O-])c1cccc(Nc2nccc(-c3cccnc3)n2)c1 | 33.9 µM
3 | CCC(=O)Nc1ccc(Sc2nc(Nc3cc(C)[nH]n3)cc(N3CCN(C)CC3)n2)cc1 | 0.603 µM
4 | Cc1ccc(NC(=O)c2ccc(CN3CCN(C)CC3)c(I)c2)cc1Nc1nccc(-c2cccnc2)n1 | 0.01 µM
5 | COCCN(C)/N=N/c1ccc(C(=O)Nc2cccc(Nc3nccc(-c4cccnc4)n3)c2)cc1 | 33.2 µM
6 | Cc1ccc(NC(=O)c2ccc3ccccc3c2)cc1Nc1nccc(-c2cccnc2)n1 | 0.2 µM
7 | O=[N+]([O-])c1cccc(Nc2nccc(-c3ccncc3)n2)c1 | 61.7 µM
8 | Cc1ccc(N)cc1Nc1nccc(-c2cccnc2)n1 | 1.51 µM
9 | Cc1cccc(Nc2nccc(-c3cccnc3)n2)c1 | 1.82 µM
10 | CC(=O)Nc1ccc(C)c(Nc2nccc(-c3cccnc3)n2)c1 | 5.75 µM
11 | COc1ccccc1C(=O)Nc1cccc(Nc2nccc(-c3cccnc3)n2)c1 | 1.91 µM
12 | O=[N+]([O-])c1cccc(Nc2nccc(-c3ccccn3)n2)c1 | 1.2 µM
13 | Cc1ccc(NC(=O)c2ccc(CN3CCC(CN(C)C)C3)c(C(F)(F)F)c2)cc1Nc1nccc(-c2cncnc2)n1 (stereo not drawn) | 0.011 µM
14 | Cc1ccc(NC(=O)Nc2ccc(N(C)C)cc2)cc1Nc1nccc(-c2cccnc2)n1 | 10 µM
15 | O=C(Nc1cccc(Nc2nccc(-c3cccnc3)n2)c1)c1ccccc1 | 0.398 µM
16 | COCCN/N=N/c1cccc(Nc2cc(-c3cccnc3)ncn2)c1 | 5.37 µM
17 | Cc1ccc(-c2ccnc(Nc3cccc(OC(F)(F)C(F)F)c3)n2)cc1 | 50.1 µM
18 | Nc1cccc(Nc2nccc(-c3ccncc3)n2)c1 | 0.603 µM
19 | NCCCn1ccc2c(-c3ccnc(Nc4cccc(OC(F)(F)C(F)F)c4)n3)cccc21 | 0.347 µM
20 | Cc1ccc(NC(=O)c2ccc(CN3CC(N(C)C)C3)c(C(F)(F)F)c2)cc1Nc1nccc(-c2cncnc2)n1 | 0.017 µM

Row | SMILES | IC50
21 | CN1CCN(c2ccc(C(=O)Nc3n[nH]c4sc(C(=O)NC(C)(C)c5ccccc5)cc34)cc2)CC1 | 0.00407 µM
22 | O=C(O)c1cccc(Nc2nccc(-c3cccnc3)n2)c1 | 7.94 µM
23 | Cc1ccc(NC(=O)c2ccc(N)cc2)cc1Nc1nccc(-c2cccnc2)n1 | 67.6 µM
24 | CCN(CC)c1ccc(NC(=O)Nc2ccc(C)c(Nc3nccc(-c4cccnc4)n3)c2)cc1 | 10 µM
25 | Cc1ccc(NC(=O)N2CCN(C)CC2)cc1Nc1nccc(-c2cccnc2)n1 | 5.01 µM
26 | FC(F)C(F)(F)Oc1cccc(Nc2nccc(-c3c[nH]c4ccccc34)n2)c1 | 0.372 µM
27 | Cc1ccc(NC(=O)NCCN2CCCC2)cc1Nc1nccc(-c2cccnc2)n1 | 8.91 µM
28 | Nc1cccc(Nc2nccc(-c3cccnc3)n2)c1 | 0.708 µM
29 | Cc1ccc(NC(=O)c2ccc(CN3CCN(C)CC3)c(Cl)c2)cc1Nc1nccc(-c2cccnc2)n1 | 0.01 µM
30 | CCN(CC)c1cccc(NC(=O)Nc2ccc(C)c(Nc3nccc(-c4cccnc4)n3)c2)c1 | 1 µM
31 | Nc1ccc(C(=O)Nc2cccc(Nc3nccc(-c4cccnc4)n3)c2)cc1 | 9.77 µM
32 | Cc1ccc(NC(=O)c2ccc(Cl)cc2)cc1Nc1nccc(-c2cccnc2)n1 | 0.794 µM
33 | CN1CCN(c2ccc(C(=O)Nc3[nH]nc4c3CN(C(=O)Cc3cccs3)C4)cc2)CC1 | 0.0646 µM
34 | c1cncc(-c2ccnc(Nc3cccc(-n4ccnc4)c3)n2)c1 | 3.31 µM
35 | c1cc(Nc2nccc(-c3cccnc3)n2)cc(OCCn2ccnc2)c1 | 1 µM
36 | O=C(Nc1cccc(Nc2nccc(-c3cccnc3)n2)c1)C1=CC=CCC1=S | 0.302 µM
37 | Clc1cccc(Nc2nccc(-c3cccnc3)n2)c1 | 1.51 µM
38 | Cc1ccc(NC(=O)c2ccc(/N=N/N(C)C)cc2)cc1Nc1nccc(-c2cccnc2)n1 | 2.19 µM
39 | O=C(Nc1cccc(Nc2nccc(-c3cccnc3)n2)c1)C1CCCCC1 | 0.447 µM
40 | Cc1ccc(NC(=O)c2ccc(CN3CCC(N(C)C)C3)c(C(F)(F)F)c2)cc1Nc1nccc(-c2cncnc2)n1 (stereo not drawn) | 0.00398 µM

Row | SMILES | IC50
41 | FC(F)C(F)(F)Oc1cccc(Nc2nccc(-c3ccncc3)n2)c1 | 100 µM
42 | O=C(Nc1cccc(Nc2nccc(-c3cccnc3)n2)c1)c1ccc(F)cc1 | 0.2 µM
43 | Cc1ccc(NC(=O)Nc2cccc(N(C)C)c2)cc1Nc1nccc(-c2cccnc2)n1 | 0.575 µM
44 | COC(=O)c1cccc(Nc2nccc(-c3cccnc3)n2)c1 | 5.13 µM
45 | COc1ccccc1C(=O)Nc1ccc(C)c(Nc2nccc(-c3cccnc3)n2)c1 | 0.794 µM
46 | CN1CCN(Cc2ccc(C(=O)Nc3cccc(Nc4nccc(-c5cccnc5)n4)c3)cc2)CC1 | 0.1 µM
47 | NCCCCNC(=O)c1cccc(Nc2nccc(-c3cccnc3)n2)c1 | 0.398 µM
48 | CCCCCCC(=O)Nc1cccc(Nc2nccc(-c3cccnc3)n2)c1 | 0.2 µM
49 | c1cc(CCN2CCOCC2)cc(Nc2nccc(-c3cccnc3)n2)c1 | 10 µM
50 | Cc1ccc(C(=O)Nc2cccc(Nc3nccc(-c4cccnc4)n3)c2)cc1 | 1 µM
51 | Cc1ccc(NC(=O)c2ccc(/N=N/N(C)CCCl)cc2)cc1Nc1nccc(-c2cccnc2)n1 | 17.4 µM
52 | O=C(O)c1ccccc1C(=O)Nc1cccc(Nc2nccc(-c3cccnc3)n2)c1 | 2 µM
53 | Cc1ccc(NC(=O)c2ccccc2)cc1Nc1nccc(-c2cccnc2)n1 | 0.398 µM
54 | O=C(Nc1cccc(Nc2nccc(-c3cccnc3)n2)c1)c1ccncc1 | 0.501 µM
55 | O=C(Nc1cccc(Nc2nccc(-c3cccnc3)n2)c1)c1ccccn1 | 3.8 µM
56 | Cc1ccc(NC(=O)NCc2cccc(Cl)c2)cc1Nc1nccc(-c2cccnc2)n1 | 1 µM
57 | N#Cc1ccc(C(=O)Nc2cccc(Nc3nccc(-c4cccnc4)n3)c2)cc1 | 1.29 µM
58 | CC(C)(NC(=O)c1cc2c(NC(=O)c3ccc(CN4CCCCC4)cc3)n[nH]c2s1)c1ccccc1 | 0.0209 µM
